Assay results taken from article PMC3335078, “Length and Amino Acid Sequence of Peptides Substituted for the 5-HT3A Receptor M3M4 Loop May Affect Channel Expression and Desensitization” (PLoS ONE, 2012).

Experiments:
[1] = target: T1, 5-HT3A receptor wild-type (Mus musculus, UniProt P23979); assay: Radioactive 5-HT binding to oocytes expressing WT 5-HT3A; conditions: 150 nM [3H]5-HT + 10 µM 5-HT, 5 min room temperature, 45 s cold wash
T1 construct: unrelated to the structural/functional states accessible to a normal full-length 5-HT3A receptor; expressed in transfected cells; host or cells: Xenopus laevis oocytes injected with mRNA
Experimental: (§1) Assays were terminated by five washes with ice cold CFFR buffer, followed by solubilization of the oocytes individually with 200 µl 5% SDS. Total wash time was 45 s. […] All data points represent the average of at least fifteen individual oocytes derived from three separate oocyte isolations.
(§2) To determine the extent of non-specific binding, all binding experiments were performed in parallel with diethylpyrocarbonate-(DEPC)-treated-water injected oocytes or uninjected oocytes.

[2] = target: T2, 5-HT3A M3M4 loop SQPAARA construct (Mus musculus, UniProt P23979); assay: Two-electrode voltage clamp, oocytes expressing SQPAARA loop construct; assay type: cell-based; conditions: 10 µM 5-HT, Xenopus oocytes
T2 construct: expressed in transfected cells; host or cells: Xenopus laevis oocytes injected with mRNA
T2 sequence (P23979 with tags, fused parts or gaps): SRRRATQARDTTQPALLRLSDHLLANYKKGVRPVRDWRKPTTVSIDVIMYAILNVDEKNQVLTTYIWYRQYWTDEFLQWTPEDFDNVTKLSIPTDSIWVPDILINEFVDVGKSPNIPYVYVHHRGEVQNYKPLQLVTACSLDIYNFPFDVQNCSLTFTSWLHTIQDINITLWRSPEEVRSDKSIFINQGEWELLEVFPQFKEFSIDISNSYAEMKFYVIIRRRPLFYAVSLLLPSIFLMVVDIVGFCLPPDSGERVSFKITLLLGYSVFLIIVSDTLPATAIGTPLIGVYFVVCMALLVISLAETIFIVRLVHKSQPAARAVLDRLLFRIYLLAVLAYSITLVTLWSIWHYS
Text: (§3) The mouse 5-HT3A cDNA with an N-terminal V5 epitope tag was cloned into the pXOON vector as previously described, and is referred to in this paper as “wild-type” (WT). The starting construct for all of the M3M4 loop replacement constructs used in this work was the 5-HT3A-ΔM3M4 construct formed by splicing the cytoplasmic end of M3 (M3-LVHK/QDLQRP…) to the cytoplasmic end of M4 (…WLRVGY/VLDRLL-M4). The splice was made at the site of the “/” to yield the sequence M3-LVHK/VLDRLL-M4 [34]. This removed 115 residues predicted to form the M3M4 loop.
(§4) The construction of the 5-HT3A-glvM3M4 chimera with the 5-HT3A M3M4 loop replaced by the GLIC heptapeptide M3M4 loop (SQPARAA) was described previously. Point mutations, alanine and Gly-Ser-Ala insertions into the 5-HT3A-ΔM3M4 construct were generated with the Quikchange site directed mutagenesis procedure (Stratagene, La Jolla, CA). […]
(§5) Currents were recorded under two-electrode voltage clamp from oocytes 2–5 d post-injection as described previously. […]
(§6) Desensitization rates were determined by fitting a single exponential decay function to the current data with Prism 4 software (GraphPad Software). Significant differences compared with wild-type were determined by a one-way ANOVA (p<0.05) using Dunnett's multiple comparison post-hoc test (p<0.05). […]

[3] = target: T3, 5-HT3A M3M4 loop GSA mutant (Mus musculus, UniProt P23979, DELINS338-452GSA); assay: Two-electrode voltage clamp, oocytes expressing GSA M3M4 mutant; assay type: cell-based; conditions: 10 µM 5-HT, Xenopus oocytes
T3 construct: expressed in transfected cells; host or cells: Xenopus laevis oocytes injected with mRNA
T3 sequence (P23979 with tags, fused parts or gaps isoform P23979-2 DELINS338-452GSA limits assumed): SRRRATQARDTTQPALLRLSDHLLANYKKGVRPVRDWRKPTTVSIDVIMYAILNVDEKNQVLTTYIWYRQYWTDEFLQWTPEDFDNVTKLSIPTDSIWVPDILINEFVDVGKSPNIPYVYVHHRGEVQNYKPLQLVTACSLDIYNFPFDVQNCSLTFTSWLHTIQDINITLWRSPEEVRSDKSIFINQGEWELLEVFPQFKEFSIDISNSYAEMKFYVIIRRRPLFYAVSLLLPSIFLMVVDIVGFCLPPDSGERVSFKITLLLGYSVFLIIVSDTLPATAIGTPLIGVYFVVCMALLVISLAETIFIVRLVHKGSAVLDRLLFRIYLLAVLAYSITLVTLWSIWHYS
Text: as §3, §4, §5, §6

[4] = target: T4, 5-HT3A construct with single glycine in place of the single alanine (Mus musculus, UniProt P23979, DELINS338-452G); assay: Two-electrode voltage clamp, oocytes expressing single glycine loop construct; assay type: cell-based; conditions: Xenopus oocytes, data not shown
T4 construct: expressed in transfected cells; host or cells: Xenopus laevis oocytes injected with mRNA
T4 sequence (P23979 with tags, fused parts or gaps isoform P23979-2 DELINS338-452G limits assumed): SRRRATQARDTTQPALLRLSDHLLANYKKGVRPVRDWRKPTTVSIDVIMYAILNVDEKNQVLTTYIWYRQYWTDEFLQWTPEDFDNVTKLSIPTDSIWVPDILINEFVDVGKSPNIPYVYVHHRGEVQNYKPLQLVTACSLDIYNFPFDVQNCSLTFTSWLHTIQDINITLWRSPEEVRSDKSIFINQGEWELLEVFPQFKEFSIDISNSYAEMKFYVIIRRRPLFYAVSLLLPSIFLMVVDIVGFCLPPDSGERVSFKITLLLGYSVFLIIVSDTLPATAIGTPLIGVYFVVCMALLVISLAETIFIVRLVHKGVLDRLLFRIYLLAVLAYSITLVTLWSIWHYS
Text: as §3, §4, §5, §6

[5] = target: T5, 5-HT3A construct with single proline in place of the single alanine (Mus musculus, UniProt P23979, DELINS338-452P); assay: Two-electrode voltage clamp, oocytes expressing single proline loop construct; assay type: cell-based; conditions: Xenopus oocytes, data not shown
T5 construct: expressed in transfected cells; host or cells: Xenopus laevis oocytes injected with mRNA
T5 sequence (P23979 with tags, fused parts or gaps isoform P23979-2 DELINS338-452P limits assumed): as the sequence (P23979 with tags, fused parts or gaps isoform P23979-2 DELINS338-452G limits assumed) above, with G315P counted along it
Text: as §3, §4, §5, §6

[6] = target: T6, 5-HT3A M3M4 loop SQPAAAA construct (Mus musculus, UniProt P23979); assay: Two-electrode voltage clamp, oocytes expressing SQPAAAA loop construct; assay type: cell-based; conditions: 10 µM 5-HT, Xenopus oocytes
T6 construct: expressed in transfected cells; host or cells: Xenopus laevis oocytes injected with mRNA
T6 sequence (P23979 with tags, fused parts or gaps): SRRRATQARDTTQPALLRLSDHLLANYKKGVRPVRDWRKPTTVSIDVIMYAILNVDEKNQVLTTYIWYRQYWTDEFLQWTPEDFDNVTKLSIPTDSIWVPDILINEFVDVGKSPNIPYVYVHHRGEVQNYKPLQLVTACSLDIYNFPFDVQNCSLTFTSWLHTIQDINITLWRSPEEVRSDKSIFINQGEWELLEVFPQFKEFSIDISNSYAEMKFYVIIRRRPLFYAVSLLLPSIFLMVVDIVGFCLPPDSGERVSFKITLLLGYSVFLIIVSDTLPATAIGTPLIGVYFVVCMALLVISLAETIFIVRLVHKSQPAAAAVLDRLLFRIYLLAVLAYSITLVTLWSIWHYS
Text: as §3, §4, §5, §6

5-HT3A-A1 = target: T7, 5-HT3A-A1 (Mus musculus, UniProt P23979, DELINS338-452A); assay: Radioactive 5-HT binding to oocytes expressing 5-HT3A-A1; conditions: 150 nM [3H]5-HT + 10 µM 5-HT, 5 min, 45 s cold wash
T7 construct: expressed in transfected cells; host or cells: Xenopus laevis oocytes injected with mRNA
T7 sequence (P23979 with tags, fused parts or gaps isoform P23979-2 DELINS338-452A limits assumed): as the sequence (P23979 with tags, fused parts or gaps isoform P23979-2 DELINS338-452G limits assumed) above, with G315A counted along it
Experimental: as §1, §2

[7] = target: T8, 5-HT3A receptor wild-type (WT, V5-tagged) (Mus musculus, UniProt P23979); assay: Two-electrode voltage clamp, 5-HT-induced currents in oocytes expressing wild-type 5-HT3A; assay type: cell-based; conditions: wildtype
T8 construct: unrelated to the structural/functional states accessible to a normal full-length 5-HT3A receptor; expressed in transfected cells; host or cells: Xenopus laevis oocytes injected with mRNA
T8 sequence (P23979 24-483 isoform P23979-2 limits assumed): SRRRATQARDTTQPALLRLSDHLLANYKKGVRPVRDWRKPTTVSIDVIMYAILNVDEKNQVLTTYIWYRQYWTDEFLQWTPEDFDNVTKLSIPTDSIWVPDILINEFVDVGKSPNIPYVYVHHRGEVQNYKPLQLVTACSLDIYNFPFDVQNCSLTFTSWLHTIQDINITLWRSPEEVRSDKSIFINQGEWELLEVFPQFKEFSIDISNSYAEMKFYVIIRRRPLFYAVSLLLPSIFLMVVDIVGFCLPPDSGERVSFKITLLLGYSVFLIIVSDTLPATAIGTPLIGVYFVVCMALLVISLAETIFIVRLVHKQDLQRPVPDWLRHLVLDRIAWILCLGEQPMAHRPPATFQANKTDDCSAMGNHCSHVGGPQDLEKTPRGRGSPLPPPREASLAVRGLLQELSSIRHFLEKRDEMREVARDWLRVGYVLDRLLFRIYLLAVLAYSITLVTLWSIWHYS
Experimental: The mouse 5-HT3A cDNA with an N-terminal V5 epitope tag was cloned into the pXOON vector as previously described [34], and is referred to in this paper as “wild-type” (WT).
All surgery was performed under tricaine anesthesia, and all efforts were made to minimize suffering. Oocyctes were harvested from Xenopus (Nasco Science, Fort Atkinson, WI) anesthetized with 0.15% tricaine. Oocyctes were defolliculated by incubation in 2 mg ml^−1 Type 1A collagenase (Sigma-Aldrich, St. Louis, MO) in OR2 (85 mM NaCl, 2 mM KCl, 1 mM MgCl2, and 5 mM HEPES; pH adjusted to 7.5 with NaOH) for a 60 or 75 min. Oocytes were washed in OR2 and stored at 16°C in SOS medium: 100 mM NaCl, 2 mM KCl, 1 mM MgCl2, 1.8 mM CaCl2 5 mM HEPES, pH 7.5 with 100 IU ml^−1 penicillin, 100 µg ml^−1 streptomycin, and 250 ng ml^−1 amphotericin B (Invitrogen, Carlsbad, CA) and 5% horse serum (Sigma-Aldrich). 24 hrs following isolation, oocyctes were injected with 23 nl (2.3 ng) of mRNA and were kept in SOS media for 2–5 d at 16°C.
Currents were recorded under two-electrode voltage clamp from oocytes 2–5 d post-injection as described previously [37]. […] The perfusion chamber volume was 200 µl. A 3 M KCl/agar bridge connected the ground electrode to the bath. The holding potential was maintained at −60 mV. […] Salts were purchased from Fisher Scientific (Hampton, NH) or Sigma-Aldrich.
Desensitization rates were determined by fitting a single exponential decay function to the current data with Prism 4 software (GraphPad Software). Significant differences compared with wild-type were determined by a one-way ANOVA (p<0.05) using Dunnett's multiple comparison post-hoc test (p<0.05). […] One way ANOVA (P<0.05) with post hoc Dunnett's Multiple Comparison test was performed using Prism 5.0 (Graphpad software.)

[8] = target: T9, 5-HT3A M3M4 loop SQPAEAA construct (Mus musculus, UniProt P23979); assay: Two-electrode voltage clamp, oocytes expressing SQPAEAA loop construct; assay type: cell-based; conditions: 10 µM 5-HT, Xenopus oocytes
T9 construct: expressed in transfected cells; host or cells: Xenopus laevis oocytes injected with mRNA
T9 sequence (P23979 with tags, fused parts or gaps): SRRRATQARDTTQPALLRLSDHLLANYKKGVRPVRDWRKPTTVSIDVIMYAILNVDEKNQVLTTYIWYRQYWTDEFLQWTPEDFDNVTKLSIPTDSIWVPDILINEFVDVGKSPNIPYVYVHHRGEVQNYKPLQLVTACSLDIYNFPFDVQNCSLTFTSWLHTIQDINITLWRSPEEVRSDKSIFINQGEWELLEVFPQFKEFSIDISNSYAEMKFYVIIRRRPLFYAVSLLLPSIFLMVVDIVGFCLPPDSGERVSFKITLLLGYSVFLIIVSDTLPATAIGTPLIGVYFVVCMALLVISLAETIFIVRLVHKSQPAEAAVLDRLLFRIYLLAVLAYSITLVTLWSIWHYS
Text: as §3, §4, §5, §6

5-HT3A-A2 = target: T10, 5-HT3A-A2 (Mus musculus, UniProt P23979, DELINS338-452AA); assay: Radioactive 5-HT binding to oocytes expressing 5-HT3A-A2; conditions: 150 nM [3H]5-HT + 10 µM 5-HT, 5 min, 45 s cold wash
T10 construct: expressed in transfected cells; host or cells: Xenopus laevis oocytes injected with mRNA
T10 sequence (P23979 with tags, fused parts or gaps isoform P23979-2 DELINS338-452AA limits assumed): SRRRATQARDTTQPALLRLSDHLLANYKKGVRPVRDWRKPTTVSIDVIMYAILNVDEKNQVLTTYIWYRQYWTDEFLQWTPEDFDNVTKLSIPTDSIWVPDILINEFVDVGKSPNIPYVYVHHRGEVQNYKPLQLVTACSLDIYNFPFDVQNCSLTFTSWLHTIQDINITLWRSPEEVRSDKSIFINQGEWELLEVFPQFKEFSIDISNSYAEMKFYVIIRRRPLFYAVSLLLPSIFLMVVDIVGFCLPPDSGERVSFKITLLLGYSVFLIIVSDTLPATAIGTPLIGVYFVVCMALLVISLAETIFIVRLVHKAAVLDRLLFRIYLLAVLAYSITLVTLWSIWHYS
Experimental: as §1, §2

`NCCc1c[nH]c2ccc(O)cc12` [5-HT, 5-hydroxytryptamine] was tested, and the “Radiolabeled 5-HT bound per oocyte” value [1] was 2.50±0.3 pmol per oocyte, the Peak current [2] was 320±25 nA and the 5-HT induced current [3] was 50±12 nA. For the same compound, the 5-HT induced current [4] was “neither construct generated any 5-HT induced currents”, the 5-HT induced current [5] was “neither construct generated any 5-HT induced currents” and the 5-HT induced current [6] was “large currents”. For the same compound, the “Radiolabeled 5-HT binding to oocytes” value (5-HT3A-A1) was “undetectable”, the “10–90% Activation rise time” value ([7]; 10 µM 5-HT) was 587 ± 51 ms and the “Imax (peak current)” value ([7]; 10 µM 5-HT (saturating), Xenopus oocytes, -60 mV) was 7300±700 nA. The “Desensitization time constant τ” value ([7]; prolonged 10 µM 5-HT, Ca-free buffer) was 77 ± 18 s, the 5-HT induced current [8] was “large currents” and the “Radiolabeled 5-HT bound per oocyte” value (5-HT3A-A2) was 0.33±0.06 pmol per oocyte.
